According to article PMC7285812 (Drug Design, Development and Therapy, 2020):
Where “and” joins values, the source holds several entries; their conditions need not be identical. Equal values may be shown once. Where a name gives a salt, the structure may show the parent alone.

Tests used:
[1] = target: AChE electric eel (Electrophorus electricus, UniProt O42275); test: biochemical
[2] = target: BChE (lyophilized equine serum) (Equus caballus, UniProt P81908); test: Butyrylcholinesterase inhibition, Ellman's assay; assay type: biochemical; conditions: for inhibition at 15.62 µg/mL / inhibition at 31.25 µg/mL / inhibition at 62.5 µg/mL / inhibition at 125 µg/mL / inhibition at 250 µg/mL / inhibition at 500 µg/mL / inhibition at 1000 µg/mL: read-out: (%) Inhibition BChE
Chain of BChE (lyophilized equine serum) (P81908 whole entry): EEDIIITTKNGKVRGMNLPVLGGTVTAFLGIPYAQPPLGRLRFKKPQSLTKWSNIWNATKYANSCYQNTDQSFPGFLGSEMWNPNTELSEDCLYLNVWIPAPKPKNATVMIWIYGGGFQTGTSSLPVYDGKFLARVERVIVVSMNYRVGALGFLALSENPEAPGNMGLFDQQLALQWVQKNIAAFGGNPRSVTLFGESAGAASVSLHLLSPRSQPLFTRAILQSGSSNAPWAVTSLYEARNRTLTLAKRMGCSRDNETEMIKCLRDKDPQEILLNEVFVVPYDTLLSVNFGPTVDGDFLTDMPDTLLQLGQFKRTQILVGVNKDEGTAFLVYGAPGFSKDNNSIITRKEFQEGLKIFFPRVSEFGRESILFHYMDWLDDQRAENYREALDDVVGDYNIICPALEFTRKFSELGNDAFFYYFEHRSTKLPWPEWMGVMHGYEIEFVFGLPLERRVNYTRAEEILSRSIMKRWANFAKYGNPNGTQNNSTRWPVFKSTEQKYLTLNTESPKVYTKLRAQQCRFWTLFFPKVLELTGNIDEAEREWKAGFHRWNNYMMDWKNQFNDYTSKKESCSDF

[3] = DPPH radicals scavenging assay
[4] = ABTS free radicals scavenging assay
[5] = Hydrogen peroxide free radicals scavenging assay; conditions: read-out: IC50 H2O2 free radicals scavenging
[6] = target: α-glucosidase from Saccharomyces cerevisiae (Saccharomyces cerevisiae, UniProt P53341); test: α-Glucosidase inhibition, chromogenic assay; assay type: biochemical
Chain of α-glucosidase from Saccharomyces cerevisiae (P53341 whole entry): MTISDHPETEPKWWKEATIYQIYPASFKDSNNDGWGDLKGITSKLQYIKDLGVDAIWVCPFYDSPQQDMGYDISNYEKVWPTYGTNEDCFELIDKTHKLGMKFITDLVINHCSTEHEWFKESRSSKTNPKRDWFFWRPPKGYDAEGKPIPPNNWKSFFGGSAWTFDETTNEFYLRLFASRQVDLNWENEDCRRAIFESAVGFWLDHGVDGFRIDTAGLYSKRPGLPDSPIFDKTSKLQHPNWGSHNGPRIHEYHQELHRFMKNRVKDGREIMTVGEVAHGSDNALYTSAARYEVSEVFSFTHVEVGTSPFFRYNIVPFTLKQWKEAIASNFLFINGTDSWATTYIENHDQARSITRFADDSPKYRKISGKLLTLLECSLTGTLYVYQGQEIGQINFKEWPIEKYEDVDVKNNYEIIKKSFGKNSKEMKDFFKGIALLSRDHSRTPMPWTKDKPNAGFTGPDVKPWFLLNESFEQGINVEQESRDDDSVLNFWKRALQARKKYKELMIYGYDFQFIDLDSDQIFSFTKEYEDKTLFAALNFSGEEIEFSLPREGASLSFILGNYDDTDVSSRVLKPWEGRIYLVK

[7] = target: acetylcholinesterase (Electrophorus electricus, UniProt O42275); test: Michaelis–Menten kinetics of acetylcholinesterase inhibition; assay type: biochemical, electric eel; conditions: Michaelis–Menten / Lineweaver–Burk
Chain of acetylcholinesterase (O42275 24-633): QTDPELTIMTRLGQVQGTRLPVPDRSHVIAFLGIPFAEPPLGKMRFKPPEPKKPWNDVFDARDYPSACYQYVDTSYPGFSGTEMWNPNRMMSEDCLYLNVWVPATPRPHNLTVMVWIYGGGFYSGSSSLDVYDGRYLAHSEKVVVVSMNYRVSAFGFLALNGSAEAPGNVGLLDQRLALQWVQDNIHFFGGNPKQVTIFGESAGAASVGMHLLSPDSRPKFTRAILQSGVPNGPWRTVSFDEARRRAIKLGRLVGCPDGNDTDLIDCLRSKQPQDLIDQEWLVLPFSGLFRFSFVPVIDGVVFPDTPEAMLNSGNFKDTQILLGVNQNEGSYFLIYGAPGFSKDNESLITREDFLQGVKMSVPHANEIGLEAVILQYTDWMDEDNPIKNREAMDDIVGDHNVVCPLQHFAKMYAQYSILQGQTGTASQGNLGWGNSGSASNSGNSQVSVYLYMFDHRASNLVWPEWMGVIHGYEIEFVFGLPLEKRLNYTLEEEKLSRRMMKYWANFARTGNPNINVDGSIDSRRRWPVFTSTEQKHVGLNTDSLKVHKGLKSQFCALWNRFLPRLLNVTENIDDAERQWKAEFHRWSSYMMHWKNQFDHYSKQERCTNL

[8] = target: butyrylcholinesterase (Equus caballus, UniProt P81908); test: Michaelis–Menten kinetics of butyrylcholinesterase inhibition; assay type: biochemical, equine; conditions: Michaelis–Menten / Lineweaver–Burk
Chain of butyrylcholinesterase (P81908 whole entry): as the sequence (P81908 whole entry) above

[9] = target: α-glucosidase (Saccharomyces cerevisiae, UniProt P53341); test: Michaelis–Menten kinetics of α-glucosidase inhibition; assay type: biochemical; conditions: Michaelis–Menten / Lineweaver–Burk
Chain of α-glucosidase (P53341 whole entry): as the sequence (P53341 whole entry) above

[10] = read-out: (%) Inhibition α-glucosidase

Chain of AChE electric eel (O42275 24-633): as the sequence (O42275 24-633) above

Which IC50 [1] does the source give for `O=CC1([C@@H]2CC(=O)N(c3ccccc3)C2=O)CCCCC1` [Compound 1, (S)-1-(2,5-dioxo-1-phenylpyrrolidin-3-yl) cyclohexanecarbaldehyde] here?
The IC50 was 343 µM.

And the inhibition at 15.62 µg/mL ([1]; read-out: (%) Inhibition AChE)?
Its inhibition at 15.62 µg/mL is 12.8 ± 1.5%.

And the inhibition at 31.25 µg/mL ([1]; read-out: (%) Inhibition AChE)?
Its inhibition at 31.25 µg/mL is 23.9 ± 0.88%.

What about the inhibition at 62.5 µg/mL ([1]; read-out: (%) Inhibition AChE) of the same molecule?
Its inhibition at 62.5 µg/mL is 41.1 ± 0.47%.

And the inhibition at 125 µg/mL ([1]; read-out: (%) Inhibition AChE)?
The inhibition at 125 µg/mL was 57.03 ± 0.35%.

What about the inhibition at 250 µg/mL ([1]; read-out: (%) Inhibition AChE) of the same molecule?
Its inhibition at 250 µg/mL is 68.6 ± 1.06%.

What about the inhibition at 500 µg/mL ([1]; read-out: (%) Inhibition AChE) of the same molecule?
Its inhibition at 500 µg/mL is 72.76 ± 0.71%.

And the inhibition at 1000 µg/mL ([1]; read-out: (%) Inhibition AChE)?
The inhibition at 1000 µg/mL was 78.42 ± 0.43%.

And the IC50 [2]?
Its IC50 is 277 µM.

What about the inhibition at 15.62 µg/mL [2] of the same molecule?
The inhibition at 15.62 µg/mL was 15.4 ± 0.9%.

What about the inhibition at 31.25 µg/mL [2] of the same molecule?
The inhibition at 31.25 µg/mL was 26.1 ± 1.04%.

And the inhibition at 62.5 µg/mL [2]?
Its inhibition at 62.5 µg/mL is 44.6 ± 0.63%.

And the inhibition at 125 µg/mL [2]?
The inhibition at 125 µg/mL was 59.8 ± 1.21%.

And the inhibition at 250 µg/mL [2]?
Its inhibition at 250 µg/mL is 69.7 ± 0.91%.

What about the inhibition at 500 µg/mL [2] of the same molecule?
Its inhibition at 500 µg/mL is 75.76 ± 0.61%.

And the inhibition at 1000 µg/mL [2]?
The inhibition at 1000 µg/mL was 81.49 ± 0.6%.

And the “(%) Inhibition DPPH” value ([3]; 15.62 μg/mL)?
Its value is 28.23 ± 1.71 %.

And the “(%) Inhibition DPPH” value ([3]; 31.25 μg/mL)?
Its value is 34.05 ± 1.40 %.

And the “(%) Inhibition DPPH” value ([3]; 62.5 μg/mL)?
Its value is 44.66 ± 0.88 %.

And the “(%) Inhibition DPPH” value ([3]; 125 μg/mL)?
Its value is 58.50 ± 1.61 %.

And the “(%) Inhibition DPPH” value ([3]; 250 μg/mL)?
Its value is 68.40 ± 1.97 %.

And the “(%) Inhibition DPPH” value ([3]; 500 μg/mL)?
The value was 72.83 ± 1.89 %.

What about the “(%) Inhibition DPPH” value ([3]; 1000 μg/mL) of the same molecule?
The value was 79.53 ± 1.92 %.

What about the IC50 ([3]; read-out: IC50 DPPH free radicals scavenging) of the same molecule?
The IC50 was 298 µM.

And the “(%) Inhibition ABTS” value ([4]; 15.62 μg/mL)?
The value was 16.60±1.63 %.

What about the “(%) Inhibition ABTS” value ([4]; 31.25 μg/mL) of the same molecule?
The value was 26.87±0.85 %.

What about the “(%) Inhibition ABTS” value ([4]; 62.5 μg/mL) of the same molecule?
The value was 40.51±0.54 %.

And the “(%) Inhibition ABTS” value ([4]; 125 μg/mL)?
The value was 54.49±0.60 %.

And the “(%) Inhibition ABTS” value ([4]; 250 μg/mL)?
Its value is 61.22±1.28 %.

What about the “(%) Inhibition ABTS” value ([4]; 500 μg/mL) of the same molecule?
The value was 67.31±0.58 %.

What about the “(%) Inhibition ABTS” value ([4]; 1000 μg/mL) of the same molecule?
The value was 79.87±1.27 %.

And the IC50 ([4]; read-out: IC50 ABTS free radicals scavenging)?
Its IC50 is 333 µM.

What about the IC50 [5] of the same molecule?
The IC50 was 826 µM.

And the IC50 [6]?
The IC50 was 158 µM.

What about the inhibition at 15.62 µg/mL [6, 10] of the same molecule?
The inhibition at 15.62 µg/mL was 28 ± 0.35%.

And the inhibition at 31.25 µg/mL [6, 10]?
The inhibition at 31.25 µg/mL was 34.4 ± 0.43%.

What about the inhibition at 62.5 µg/mL [6, 10] of the same molecule?
Its inhibition at 62.5 µg/mL is 44.9 ± 1.55%.

What about the inhibition at 125 µg/mL [6, 10] of the same molecule?
Its inhibition at 125 µg/mL is 58.8 ± 0.71%.

What about the inhibition at 250 µg/mL [6, 10] of the same molecule?
The inhibition at 250 µg/mL was 68.8 ± 1.24%.

And the inhibition at 500 µg/mL [6, 10]?
The inhibition at 500 µg/mL was 72.9 ± 0.96%.

And the inhibition at 1000 µg/mL [6, 10]?
The inhibition at 1000 µg/mL was 79.6 ± 1.12%.

What about the “Vmax, acetylcholinesterase inhibition” value [7] of the same molecule?
The value was 84.93 µg/min.

And the “Vmax, butyrylcholinesterase inhibition” value [8]?
The value was 1.553 µg/min.

And the “Vmax, α-glucosidase” value [9]?
The value was 2.360 µg/min.

What does the source list for `COc1ccc2c3c1O[C@H]1C[C@@H](O)C=C[C@@]31CCN(C)C2` [Galanthamine (Std.), galanthamine hydrobromide, reference compound]?
inhibition at 15.62 µg/mL [2]: 49.7 ± 0.68%; inhibition at 31.25 µg/mL [2]: 59.33 ± 0.49%; inhibition at 62.5 µg/mL [2]: 69.03 ± 0.23%; inhibition at 125 µg/mL [2]: 73.23 ± 0.4%; inhibition at 250 µg/mL [2]: 80.74 ± 0.68%; inhibition at 500 µg/mL [2]: 86.9 ± 0.48%; inhibition at 1000 µg/mL [2]: 93.9 ± 0.96%; Vmax, butyrylcholinesterase inhibition ([8]; listed as galantamine): 2.566 µg/min and 2.641 µg/min
